Where a name gives a salt, the structure may show the parent alone. Marks after values point to notes of the source that are not given here.
Legend:
[1] = tested on: Sprague Dawley strain (SD strain) male rats; test: Conditioned place preference (CPP) method, psychic dependence induced by cocaine
[2] = tested on: Sprague Dawley strain (SD strain) male rats; test: Conditioned place preference (CPP) method, psychic dependence induced by morphine; conditions: for Psychic dependence and aversion of compound alone (period in drug- or solvent-conditioned box): compound alone vs solvent control group
ddY strain male mouse = test: Naloxone-induced withdrawal syndrome in morphine-dependent mouse (physical dependence); format: in vivo; conditions: for Blepharoptosis: numbers of mouse manifesting withdrawal syndrome/numbers of total mouse / Diarrhea: numbers of mouse manifesting withdrawal syndrome/numbers of total mouse / Fore paw tremor: numbers of mouse manifesting withdrawal syndrome/numbers of total mouse / Jumping: numbers of mouse manifesting withdrawal syndrome/numbers of total mouse / Rearing: numbers of mouse manifesting withdrawal syndrome/numbers of total mouse / Wobbling: numbers of mouse manifesting withdrawal syndrome/numbers of total mouse: naloxone 3 mg/kg
Rats = test: Cocaine drug discrimination test (feeding behavior with lever pressing); format: in vivo, rat
SD strain male rats = test: Mecamylamine-induced nicotine withdrawal aversion (CPP operant boxes); format: in vivo, rat
Description: Animals used were SD strain male rats in this experiment. Experiments used were CPP operant boxes. Experiments were performed by using an aversive model in a nicotine withdrawal syndrome induced by mecamylamine, that is, a nicotine receptor antagonist. (Tsutomu Suzuki, Molecular Medicine, 32, 140 (1995); Suzuki, T. et al., Eur. J. Pharm., 314, 281 (1996); Maldonado, R. et al., J. Pharmacol. Exp. Ther., 261, 669 (1992)). Mini-osmotic pump (Alzet 2001) injected with nicotine (1 μl/hr, for seven days) was implanted under dorsal skin of the rats. An aqueous solution at a concentration of 121.4 mg/ ml was prepared so that a nicotine dose was adjusted to 10 mg/kg/day. Then, the aqueous solution was filled into the mini-osmotic pump. The rats were given conditioning training by the following counter-balance method. In the morning of the seventh day after the implantation of the mini-osmotic pump, mecamylamine (1 mg/ml), that is, nicotine receptor antagonist or physiological saline was subcutaneously injected. Then, the rats were placed in one compartment for 60 minutes. […] The periods in which the rats remained in each compartment colored white or black were measured for 15 minutes.

[3] = tested on: dopamine release in the nucleus accumbens; test: High K+ stimulated dopamine release from nucleus accumbens slices (HPLC-ECD); format: cell-based; conditions: rat nucleus accumbens slices, 20 mM high K+ stimulation; FIG. 11
[4] = tested on: rats with nicotine dependence; conditions: Malin et al. 1993; cited from earlier work
chronic smokers = conditions: for three hours, double blind and cross-over test vs placebo; Karras et al. 1980; cited from earlier work
[5] = cocaine 10 mg/kg i.p. in combination with compound 0.1 mg/kg s.c., FIGS. 5 and 6
[6] = morphine 3 mg/kg s.c. in combination with compound 0.1 mg/kg s.c., FIGS. 1 and 2
[7] = Compound 3 0.003 mg/kg s.c. with morphine
[8] = Compound 3 0.01 mg/kg s.c. with morphine
[9] = Compound 3 0.03 mg/kg s.c. with morphine

Molecule: 17-(cyclopropylmethyl)-3,14β-dihydroxy-4,5α-epoxy-6β-[N-methyl-trans-3-(methoxycinnamide) morphinan tartrate [Compound 5]
- Development of drug dependence induced by cocaine (period rats remained in drug-conditioned box) [1, 5]: inhibited the development of drug dependence induced by cocaine
- Psychic dependence and aversion of compound alone (period in drug- or solvent-conditioned box) [1]: did not produce psychic dependence and aversion

Molecule: CN(C(=O)C#Cc1ccc(C(F)(F)F)cc1)[C@@H]1CC[C@@]2(O)[C@H]3Cc4ccc(O)c5c4[C@@]2(CCN3CC2CC2)[C@H]1O5.O=C(O)/C=C\C(=O)O [Compound 1, 17-(cyclopropylmethyl)-3,14β-dihydroxy-4,5α-epoxy-6β-[N-methyl-3-(4-trifluoromethylphenyl)propiolamide] morphinan maleate]
- Development of drug dependence induced by cocaine (period rats remained in drug-conditioned box) ([1]; cocaine 4 mg/kg i.p. in combination with Compound 1 0.2 mg/kg i.p., FIG. 7): inhibited the development of drug dependence induced by cocaine
- Psychic dependence and aversion of compound alone (period in drug- or solvent-conditioned box) [1]: did not produce psychic dependence and aversion
- Psychic dependence and aversion of compound alone (period in drug- or solvent-conditioned box) [2]: did not develop psychic dependence and aversion
- Development of drug dependence caused by morphine (period rats remained in drug-conditioned box) [2, 6]: inhibited the development of drug dependence caused by morphine

Molecule: Cc1cccc(/C=C/C(=O)N(C)[C@@H]2CC[C@@]3(O)[C@H]4Cc5ccc(O)c6c5[C@@]3(CCN4CC3CC3)[C@H]2O6)c1 [Compound 2, 17-(cyclopropylmethyl)-3,14β-dihydroxy-4,5α-epoxy-6β-(N-methyl-3-methylcinnamide) morphinan hydrochloride]
- Psychic dependence and aversion of compound alone (period in drug- or solvent-conditioned box) [2]: did not develop psychic dependence and aversion
- Development of drug dependence caused by morphine (period rats remained in drug-conditioned box) [2, 6]: inhibited the development of drug dependence caused by morphine

Molecule: CN(C(=O)/C=C/c1ccoc1)[C@@H]1CC[C@@]2(O)[C@H]3Cc4ccc(O)c5c4[C@@]2(CCN3CC2CC2)[C@H]1O5 [Compound 3, 17-(cyclopropylmethyl)-3,14β-dihydroxy-4,5α-epoxy-6β-[N-methyl-trans-3-(3-furyl)acrylamide] morphinan hydrochloride]
- Incidence rates of jumping, shaking, and diarrhea (ddY strain male mouse; 0.03 mg/kg, compared with morphine alone group): significantly decreased
- Body weight reduction (withdrawal) (ddY strain male mouse; 0.01 or 0.03 mg/kg, compared with morphine alone group, FIG. 4): significant suppression of body weight reduction
- Blepharoptosis: numbers of mouse manifesting withdrawal syndrome/numbers of total mouse (ddY strain male mouse; [7]): 10/10
- Diarrhea: numbers of mouse manifesting withdrawal syndrome/numbers of total mouse (ddY strain male mouse; [7]): 7/10
- Fore paw tremor: numbers of mouse manifesting withdrawal syndrome/numbers of total mouse (ddY strain male mouse; [7]): 9/10
- Jumping: numbers of mouse manifesting withdrawal syndrome/numbers of total mouse (ddY strain male mouse; [7]): 3/10
- Rearing: numbers of mouse manifesting withdrawal syndrome/numbers of total mouse (ddY strain male mouse; [7]): 10/10
- Wobbling: numbers of mouse manifesting withdrawal syndrome/numbers of total mouse (ddY strain male mouse; [7]): 7/10
- Blepharoptosis: numbers of mouse manifesting withdrawal syndrome/numbers of total mouse (ddY strain male mouse; [8]): 10/10
- Diarrhea: numbers of mouse manifesting withdrawal syndrome/numbers of total mouse (ddY strain male mouse; [8]): 6/10
- Fore paw tremor: numbers of mouse manifesting withdrawal syndrome/numbers of total mouse (ddY strain male mouse; [8]): 10/10
- Jumping: numbers of mouse manifesting withdrawal syndrome/numbers of total mouse (ddY strain male mouse; [8]): 5/10
- Rearing: numbers of mouse manifesting withdrawal syndrome/numbers of total mouse (ddY strain male mouse; [8]): 7/10
- Wobbling: numbers of mouse manifesting withdrawal syndrome/numbers of total mouse (ddY strain male mouse; [8]): 5/10
- Blepharoptosis: numbers of mouse manifesting withdrawal syndrome/numbers of total mouse (ddY strain male mouse; [9]): 10/10
- Diarrhea: numbers of mouse manifesting withdrawal syndrome/numbers of total mouse (ddY strain male mouse; [9]): 3/10*
- Fore paw tremor: numbers of mouse manifesting withdrawal syndrome/numbers of total mouse (ddY strain male mouse; [9]): 7/10
- Jumping: numbers of mouse manifesting withdrawal syndrome/numbers of total mouse (ddY strain male mouse; [9]): 3/10*
- Rearing: numbers of mouse manifesting withdrawal syndrome/numbers of total mouse (ddY strain male mouse; [9]): 8/10
- Wobbling: numbers of mouse manifesting withdrawal syndrome/numbers of total mouse (ddY strain male mouse; [9]): 3/10*
- Naloxone-induced withdrawal syndrome (ddY strain male mouse; simultaneous administration with morphine, 0.003-0.03 mg/kg s.c.): relieved by the simultaneous administration of Compound 3 in a dose-dependent manner
- Rates of feeding behavior with lever pressing (cocaine discrimination) (Rats; Compound 3 10 μg/kg with cocaine 1.25, 2.5, or 5 mg/kg vs saline + cocaine, FIG. 8): significantly decreased
- Inhibitory effect of cocaine discrimination (Rats; Compound 3 20 μg/kg with cocaine, compared with 10 μg/kg): enhanced
- Aversive effect induced by mecamylamine (nicotine withdrawal) (SD strain male rats; pretreatment 30 μg/kg vs physiological saline pretreatment): significantly inhibited the aversive effect
- Aversive effect induced by mecamylamine (nicotine withdrawal) (SD strain male rats; pretreatment 10 or 30 μg/kg s.c., 30 minutes before mecamylamine, FIG. 10): inhibited by the pretreatment with Compound 3 (10 or 30 μg/kg) in a dose dependent manner
- Dopamine release in the nucleus accumbens [3]: inhibited dopamine release in the nucleus accumbens
- Psychic dependence and aversion of compound alone (period in drug- or solvent-conditioned box) [2]: did not produce psychic dependence and aversion
- Development of drug dependence caused by morphine (period rats remained in drug-conditioned box) ([2]; morphine 5 mg/kg s.c. in combination with Compound 3 0.1 or 0.03 mg/kg s.c., FIG. 3): inhibited the development of drug dependence caused by morphine

Molecule: Cc1cccc(C#CC(=O)N(C)[C@@H]2CC[C@@]3(O)[C@H]4Cc5ccc(O)c6c5[C@@]3(CCN4CC3CC3)[C@H]2O6)c1 [Compound 4, 17-(cyclopropylmethyl)-3,14β-dihydroxy-4,5α-epoxy-6β-[N-methyl-3-(3-methylphenyl)propiolamide] morphinan hydrochloride]
- Development of drug dependence induced by cocaine (period rats remained in drug-conditioned box) [1, 5]: inhibited the development of drug dependence induced by cocaine
- Psychic dependence and aversion of compound alone (period in drug- or solvent-conditioned box) [1]: did not produce psychic dependence and aversion

Molecule: CN1CC[C@]23c4c5ccc(O)c4O[C@H]2[C@@H](O)C=C[C@H]3[C@H]1C5 [morphine, reference compound]
- Withdrawal syndrome after naloxone administration (ddY strain male mouse; morphine alone 8 to 45 mg/kg s.c. twice a day for five days, naloxone 3 mg/kg s.c.): withdrawal syndrome was recognized
- Withdrawal syndrome in rats with nicotine dependence [4]: inhibits the withdrawal syndrome

Molecule: C=CCN1CC[C@]23c4c5ccc(O)c4O[C@H]2C(=O)CC[C@@]3(O)[C@H]1C5 [naloxone]
- Intake of tobacco of chronic smokers (chronic smokers): effective for a reduction in intake of tobacco
- Withdrawal syndrome in rats with nicotine dependence [4]: accelerates a withdrawal syndrome

Molecule: Oc1ccc2c3c1O[C@H]1c4[nH]c5c(c4C[C@@]4(O)[C@@H](C2)N(CC2CC2)CC[C@]314)C[C@@]1(O)[C@H]2Cc3ccc(O)c4c3[C@@]1(CCN2CC1CC1)[C@H]5O4 [nor-BNI, norbinaltorphimine, reference compound]
- Antagonism of the inhibitory effect of cocaine discrimination of Compound 3 (Rats; nor-BNI pretreatment, Compound 3 0.02 mg/kg + cocaine, FIG. 9): antagonized
- Antagonism of the inhibitory effect caused by Compound 3 ([2]; pretreatment 3 mg/kg, morphine 5 mg/kg s.c. + Compound 3 0.03 mg/kg s.c.): significantly antagonized

From US20010044449A1, “REMEDIES FOR DRUG ADDICTION” (priority 1997, published 2001)
